Laboratory results published in US7700602B2, “Amino-5,5-diphenylimidazolone derivatives for the inhibition of β-secretase” (Wyeth LLC, priority 2004, dated 2010).

Legend:
human BACE1 = human BACE1 (Homo sapiens, UniProt P56817); assay: Fluorescent kinetic assay, inhibition of BACE1 (WABC-6 peptide substrate); assay type: biochemical; settings: 10 nM enzyme, 25 μM substrate WABC-6, pH 4.5, room temperature; read-out: IC50 (μM) BACE1;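 also: fluorescence monitored at 320 nm excitation and 420 nm emission every 40 s over 30 min, with the substrate cleavage rate taken from the linear slope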
human BACE1, sequence (P56817 46-501): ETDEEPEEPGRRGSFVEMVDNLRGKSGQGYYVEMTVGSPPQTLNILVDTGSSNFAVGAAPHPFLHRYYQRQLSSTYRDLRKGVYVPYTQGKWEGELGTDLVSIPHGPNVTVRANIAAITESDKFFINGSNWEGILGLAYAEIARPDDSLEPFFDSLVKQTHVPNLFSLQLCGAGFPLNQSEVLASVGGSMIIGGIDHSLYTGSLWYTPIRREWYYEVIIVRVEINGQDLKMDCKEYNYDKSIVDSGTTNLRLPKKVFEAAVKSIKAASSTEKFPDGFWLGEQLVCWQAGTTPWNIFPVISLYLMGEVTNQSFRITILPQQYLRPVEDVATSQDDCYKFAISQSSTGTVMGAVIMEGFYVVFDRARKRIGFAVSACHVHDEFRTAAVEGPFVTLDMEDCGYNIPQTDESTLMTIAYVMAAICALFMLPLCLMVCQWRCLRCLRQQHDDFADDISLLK

human BACE2 = target: T1, human BACE2 (Homo sapiens, UniProt Q9Y5Z0); assay: Fluorescent Kinetic Assay for Human Recombinant BACE 2 (selectivity BACE1/BACE2); assay type: biochemical; settings: selectivity BACE1 over BACE2; 1.5 nM human BACE2, 25 μM substrate, pH 4.5;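 also: cleavage rate from the linear slope of fluorescence (excitation 320 nm, emission 420 nm) recorded every 40 s over 30 min at room temperature, sodium acetate buffer with 0.05% CHAPS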
T1 sequence (Q9Y5Z0 63-518): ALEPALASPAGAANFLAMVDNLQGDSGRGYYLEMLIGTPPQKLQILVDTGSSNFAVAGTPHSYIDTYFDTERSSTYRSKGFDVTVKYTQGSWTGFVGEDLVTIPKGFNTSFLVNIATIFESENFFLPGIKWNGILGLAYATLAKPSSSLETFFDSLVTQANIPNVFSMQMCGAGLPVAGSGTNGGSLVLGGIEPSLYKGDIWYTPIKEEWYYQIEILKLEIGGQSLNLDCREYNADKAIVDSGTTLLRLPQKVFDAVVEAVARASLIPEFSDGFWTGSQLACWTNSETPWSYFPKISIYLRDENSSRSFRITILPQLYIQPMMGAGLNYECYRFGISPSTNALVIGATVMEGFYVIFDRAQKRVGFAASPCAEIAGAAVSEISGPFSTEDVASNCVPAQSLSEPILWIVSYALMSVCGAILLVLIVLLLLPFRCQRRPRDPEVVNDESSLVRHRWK

Compound | IC50 (human BACE1) [µM] | BACE1/BACE2 selectivity (human BACE2)
CCOc1ccc([C@@]2(c3cccc(-c4cccnc4F)c3)N=C(N)N(C)C2=O)cc1OCC [Example 103A, (5R)-2-Amino-5-(3,4-diethoxyphenyl)-5-[3-(2-fluoropyridin-3-yl)phenyl]-3-methyl-3,5-dihydro-4H-imidazol-4-one] | > 1 | III (III = <10-fold selectivity)
CCOc1ccc([C@]2(c3cccc(-c4cccnc4F)c3)N=C(N)N(C)C2=O)cc1OCC [Example 103B, (5S)-2-Amino-5-(3,4-diethoxyphenyl)-5-[3-(2-fluoropyridin-3-yl)phenyl]-3-methyl-3,5-dihydro-4H-imidazol-4-one] | 0.01 to 0.1 | II (II = 10-100-fold selectivity)
COc1ccc([C@]2(c3ccc(F)c(-c4cncnc4)c3)N=C(N)N(C)C2=O)cc1C(F)(F)F [Example 107A, (5S)-2-Amino-5-(4-fluoro-3-pyrimidin-5-ylphenyl)-5-[4-methoxy-3-(trifluoromethyl)phenyl]-3-methyl-3,5-dihydro-4H-imidazol-4-one] | 0.01 to 0.1 | I (I = >100-fold selectivity)
COc1ccc([C@@]2(c3ccc(F)c(-c4cncnc4)c3)N=C(N)N(C)C2=O)cc1C(F)(F)F [Example 107B, (5R)-2-Amino-5-(4-fluoro-3-pyrimidin-5-ylphenyl)-5-[4-methoxy-3-(trifluoromethyl)phenyl]-3-methyl-3,5-dihydro-4H-imidazol-4-one] | > 1 | III (III = <10-fold selectivity)
Cc1cc(C2(c3cccc(-c4cncnc4)c3)N=C(N)N(C)C2=O)ccc1OCCC1CCCCC1 (centres unmarked) [Example 123] | 0.11 to 1 | II (II = 10-100-fold selectivity)
NC1=NC(c2ccc(OC(F)(F)F)cc2)(c2ccc(F)c(-c3cncnc3)c2)C(=O)N1CCF (centres unmarked) [Example 126] | 0.11 to 1 | I (I = >100-fold selectivity)
NC1=NC(c2ccc(OC(F)(F)F)cc2)(c2ccc(F)c(-c3cccnc3F)c2)C(=O)N1CCF (centres unmarked) [Example 127] | 0.11 to 1 | I (I = >100-fold selectivity)
CN1C(=O)[C@](c2ccc(OC(F)F)cc2)(c2ccc(F)c(-c3cccnc3F)c2)N=C1N [Example 133A, (5S)-2-Amino-5-[4-(difluoromethoxy)phenyl]-5-[4-fluoro-3-(2-fluoropyridin-3-yl)phenyl]-3-methyl-3,5-dihydro-4H-imidazol-4-one] | 0.11 to 1 | III (III = <10-fold selectivity)
CN1C(=O)[C@](c2ccc(OC(F)F)cc2)(c2ccc(F)c(-c3ccc(F)nc3)c2)N=C1N [Example 134A, (5S)-2-Amino-5-[4-(difluoromethoxy)phenyl]-5-[4-fluoro-3-(6-fluoropyridin-3-yl)phenyl]-3-methyl-3,5-dihydro-4H-imidazol-4-one] | 0.11 to 1 | III (III = <10-fold selectivity)
CCOc1ccc([C@]2(c3ccc(F)c(-c4cccnc4F)c3)N=C(N)N(C)C2=O)cc1OCC [Example 136A, (5S)-2-Amino-5-(3,4-diethoxyphenyl)-5-[4-fluoro-3-(2-fluoropyridin-3-yl)phenyl]-3-methyl-3,5-dihydro-4H-imidazol-4-one] | 0.01 to 0.1 | II (II = 10-100-fold selectivity)
CN1C(=O)[C@](c2ccc(OC(F)F)cc2)(c2cccc(-c3cc(F)cnc3F)c2)N=C1N [Example 137A, (5S)-2-Amino-5-[4-(difluoromethoxy)phenyl]-5-[3-(2,5-difluoropyridin-3-yl)phenyl]-3-methyl-3,5-dihydro-4H-imidazol-4-one] | > 1 | III (III = <10-fold selectivity)
CN1C(=O)[C@](c2ccc(OCCF)cc2)(c2ccc(F)c(-c3cncnc3)c2)N=C1N [Example 139A, (5S)-2-Amino-5-[4-(2-fluoroethoxy)phenyl]-5-(4-fluoro-3-pyrimidin-5-ylphenyl)-3-methyl-3,5-dihydro-4H-imidazol-4-one] | 0.01 to 0.1 | I (I = >100-fold selectivity)
CN1C(=O)[C@@](c2ccc(OCCF)cc2)(c2ccc(F)c(-c3cncnc3)c2)N=C1N [Example 139B, (5R)-2-Amino-5-[4-(2-fluoroethoxy)phenyl]-5-(4-fluoro-3-pyrimidin-5-ylphenyl)-3-methyl-3,5-dihydro-4H-imidazol-4-one] | 0.11 to 1 | III (III = <10-fold selectivity)
COc1ccc([C@@]2(c3ccc(F)c(-c4cncc(F)c4)c3)N=C(N)N(C)C2=O)cc1 [Example 142A, (5S)-2-Amino-5-[4-fluoro-3-(5-fluoropyridin-3-yl)phenyl]-5-(4-methoxyphenyl)-3-methyl-3,5-dihydro-4H-imidazol-4-one] | > 1 | III (III = <10-fold selectivity)

Further lines, results first:

IC50 (human BACE1) [µM] | BACE1/BACE2 selectivity (human BACE2) | Compound
0.01 to 0.1 | II (II = 10-100-fold selectivity) | CN1C(=O)C(c2ccc(OCCF)cc2)(c2cccc(-c3cncc(F)c3)c2)N=C1N (centres unmarked) [Example 110]
0.11 to 1 | II (II = 10-100-fold selectivity) | CCN1C(=O)C(c2ccc(OC(F)F)cc2)(c2ccc(F)c(-c3cncc(F)c3)c2)N=C1N (centres unmarked) [Example 128]
0.01 to 0.1 | II (II = 10-100-fold selectivity) | CN1C(=O)[C@@](c2ccc(OC(F)F)cc2)(c2ccc(F)c(-c3cccnc3F)c2)N=C1N [Example 133B, (5R)-2-Amino-5-[4-(difluoromethoxy)phenyl]-5-[4-fluoro-3-(2-fluoropyridin-3-yl)phenyl]-3-methyl-3,5-dihydro-4H-imidazol-4-one]
0.01 to 0.1 | II (II = 10-100-fold selectivity) | CN1C(=O)[C@@](c2ccc(OC(F)F)cc2)(c2ccc(F)c(-c3ccc(F)nc3)c2)N=C1N [Example 134B, (5R)-2-Amino-5-[4-(difluoromethoxy)phenyl]-5-[4-fluoro-3-(6-fluoropyridin-3-yl)phenyl]-3-methyl-3,5-dihydro-4H-imidazol-4-one]
> 1 | III (III = <10-fold selectivity) | CN1C(=O)[C@](c2ccc(OC(F)F)cc2)(c2cccc(-c3ccc(F)nc3)c2)N=C1N [Example 135A, (5S)-2-Amino-5-[4-(difluoromethoxy)phenyl]-5-[3-(6-fluoropyridin-3-yl)phenyl]-3-methyl-3,5-dihydro-4H-imidazol-4-one]
0.01 to 0.1 | II (II = 10-100-fold selectivity) | CN1C(=O)[C@@](c2ccc(OC(F)F)cc2)(c2cccc(-c3ccc(F)nc3)c2)N=C1N [Example 135B, (5R)-2-Amino-5-[4-(difluoromethoxy)phenyl]-5-[3-(6-fluoropyridin-3-yl)phenyl]-3-methyl-3,5-dihydro-4H-imidazol-4-one]
0.01 to 0.1 | II (II = 10-100-fold selectivity) | CN1C(=O)[C@@](c2ccc(OC(F)F)cc2)(c2cccc(-c3cc(F)cnc3F)c2)N=C1N [Example 137B, (5R)-2-Amino-5-[4-(difluoromethoxy)phenyl]-5-[3-(2,5-difluoropyridin-3-yl)phenyl]-3-methyl-3,5-dihydro-4H-imidazol-4-one]
0.01 to 0.1 | II (II = 10-100-fold selectivity) | COc1ccc([C@]2(c3ccc(F)c(-c4cncc(F)c4)c3)N=C(N)N(C)C2=O)cc1 [Example 142B, (5R)-2-Amino-5-[4-fluoro-3-(5-fluoropyridin-3-yl)phenyl]-5-(4-methoxyphenyl)-3-methyl-3,5-dihydro-4H-imidazol-4-one]
